Reference: US20220274954A1, “SUBSTITUTED N-PHENYL-N-AMINOUARCILS AND SALTS THEREOF AND USE THEREOF AS HERBICIDAL AGENTS” (Bayer Aktiengesellschaft, priority 2019, published 2022)

Experiments:
Format in all cases: in vivo
Setaria viridis [1] = experiment: Post-emergence herbicidal action; details: 504 h, read-out: Setaria viridis (efficacy in %); for pest or weed control at 5 g/ha: application rate 5 g/ha
Outline: (§1)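 Plants grown from seed in sandy loam in the greenhouse were sprayed at the one-leaf stage, 2 to 3 weeks after sowing, with WP or EC formulations in water plus 0.5% additive at 20 g/ha or less. Activity was rated visually after about 3 weeks against untreated controls (100% = plants died, 0% = like control).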

Veronica persica [2] = experiment: Post-emergence herbicidal action; details: Veronica persica, 504 h, read-out: Veronica persica (efficacy in %); for pest or weed control at 5 g/ha: application rate 5 g/ha
Outline: as §1

Polygonum convolvulus [3] = experiment: Post-emergence herbicidal action; details: Fallopia convolvulus, 504 h, read-out: Polygonum convolvulus (efficacy in %)
Outline: as §1

Abutilon theophrasti [4] = experiment: Post-emergence herbicidal action; details: Abutilon theophrasti, 504 h, read-out: Abutilon theophrasti (efficacy in %); for pest or weed control at 5 g/ha: application rate 5 g/ha
Outline: as §1

Matricaria inodora [5] = experiment: Post-emergence herbicidal action; details: Tripleurospermum inodorum, 504 h, read-out: Matricaria inodora (efficacy in %); for pest or weed control at 5 g/ha: application rate 5 g/ha
Outline: as §1

Pharbitis purpurea [6] = experiment: Post-emergence herbicidal action; details: Ipomoea purpurea, 504 h, application rate 5 g/ha, read-out: Pharbitis purpurea (efficacy in %)
Outline: as §1

Setaria viridis [7] = experiment: Pre-emergence herbicidal action; details: scored after about 3 weeks
Source text: (§2) Seeds of monocotyledonous and dicotyledonous weed plants and crop plants were placed in plastic or organic planting pots and covered with soil. The compounds of the invention, formulated in the form of wettable powders (WP) or as emulsion concentrates (EC), were then applied to the surface of the covering soil as aqueous suspension or emulsion with addition of 0.5% additive at a water application rate equivalent to […] (converted). After the treatment, the pots were placed in a greenhouse and kept under good growth conditions for the test plants. After about 3 weeks, the effect of the preparations was scored visually in comparison with untreated controls as percentages. For example, 100% activity=the plants have died, 0% activity=like control plants.
(§3) Tables B1 to B11 below show the effects of selected compounds of the general formula (I) according to Tables I.1 to I.34 on various harmful plants and at an application rate corresponding to 80 g/ha and less, which were obtained by the experimental procedure mentioned above.

Veronica persica [8] = experiment: Pre-emergence herbicidal action; details: scored after about 3 weeks
Source text: as §2, §3

Echinochloa crus-galli [9] = experiment: Pre-emergence herbicidal action; details: application rate 80 g/ha, scored after about 3 weeks
Source text: as §2, §3

Amaranthus retroflexus [10] = experiment: Pre-emergence herbicidal action; details: scored after about 3 weeks
Source text: as §2, §3

Polygonum convolvulus [11] = experiment: Pre-emergence herbicidal action; details: scored after about 3 weeks
Source text: as §2, §3

Abutilon theophrasti [12] = experiment: Pre-emergence herbicidal action; details: application rate 80 g/ha, scored after about 3 weeks
Source text: as §2, §3

Alopecurus myosuroides = experiment: Pre-emergence herbicidal action; details: application rate 80 g/ha
Source text: as §2, §3

Viola tricolor [13] = experiment: Pre-emergence herbicidal action; details: scored after about 3 weeks
Source text: as §2, §3

Matricaria inodora [14] = experiment: Pre-emergence herbicidal action; details: scored after about 3 weeks
Source text: as §2, §3

Digitaria sanguinalis [15] = experiment: Pre-emergence herbicidal action; details: scored after about 3 weeks
Source text: as §2, §3

Pharbitis purpurea [16] = experiment: Pre-emergence herbicidal action; details: application rate 80 g/ha, scored after about 3 weeks
Source text: as §2, §3

Glycine max [17] = experiment: Pre-emergence crop plant compatibility; details: application rate 80 g/ha
Source text: as §2
(§4) Here, the observed effects on selected crop plants are stated in comparison to the untreated controls (values in %).

Triticum aestivum [18] = experiment: Pre-emergence crop plant compatibility; details: application rate 20 g/ha
Source text: as §2, §4

Brassica napus [19] = experiment: Pre-emergence crop plant compatibility; details: application rate 20 g/ha
Source text: as §2, §4

Zea mays [20] = experiment: Pre-emergence crop plant compatibility
Source text: as §2, §4

Oryza sativa = experiment: Post-emergence crop plant compatibility
Outline: (§5)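 Values are visual % effects about 3 weeks after treatment, relative to untreated plants (0% = like control, 100% = plant death). Crops sown in sandy loam under greenhouse conditions were treated post-emergence at the one-leaf stage (2–3 weeks). Compounds were applied as WP or EC sprays with 0.5% additive at […] water.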

Triticum aestivum [21] = experiment: Post-emergence crop plant compatibility
Outline: as §5

Brassica napus [22] = experiment: Post-emergence crop plant compatibility
Outline: as §5

Echinochloa crus-galli [23] = experiment: Post-emergence herbicidal action; details: Echinochloa crus-galli, 504 h, read-out: Echinochloa crus-galli (efficacy in %)
Outline: as §1

Amaranthus retroflexus [24] = experiment: Post-emergence herbicidal action; details: Amaranthus retroflexus, 504 h, read-out: Amaranthus retroflexus (efficacy in %)
Outline: as §1

Viola tricolor [25] = experiment: Post-emergence herbicidal action; details: Viola tricolor, 504 h, read-out: Viola tricolor (efficacy in %)
Outline: as §1

Digitaria sanguinalis [26] = experiment: Post-emergence herbicidal action; details: 504 h, application rate 20 g/ha, read-out: Digitaria sanguinalis (efficacy in %)
Outline: as §1

Stellaria media = experiment: Post-emergence herbicidal action; details: application rate 20 g/ha
Outline: as §1

Lolium rigidum = experiment: Pre-emergence herbicidal action; details: application rate 80 g/ha, scored after about 3 weeks
Source text: as §2, §3

Glycine max [27] = experiment: Post-emergence crop plant compatibility
Outline: as §5

Zea mays [28] = experiment: Post-emergence crop plant compatibility; details: application rate 1.25 g/ha
Outline: as §5

CCOC(=O)CCOc1ncccc1Sc1cc(-n2c(=O)cc(C(F)(F)F)n(N)c2=O)c(F)cc1Cl [I.5-442, Ethyl 3-{[3-({5-[3-amino-2,6-dioxo-4-(trifluoromethyl)-3,6-dihydropyrimidin-1(2H)-yl]-2-chloro-4-fluorophenyl}sulfanyl)pyridin-2-yl]oxy}propanoate]
pest or weed control at 5 g/ha (Setaria viridis [1]): 90% | pest or weed control at 5 g/ha (Veronica persica [2]): 100% | pest or weed control at 5 g/ha (Polygonum convolvulus [3]; application rate 5 g/ha): 100% | pest or weed control at 5 g/ha (Abutilon theophrasti [4]): 100% | pest or weed control at 5 g/ha (Matricaria inodora [5]): 80% | pest or weed control at 5 g/ha (Pharbitis purpurea [6]): 100% | Setaria viridis (efficacy in %) (Setaria viridis [7]; application rate 80 g/ha): 100% | Veronica persica (efficacy in %) (Veronica persica [8]; application rate 20 g/ha): 90% | Veronica persica (efficacy in %) (Veronica persica [8]; application rate 80 g/ha): 100% | Echinochloa crus-galli (efficacy in %) (Echinochloa crus-galli [9]): 80% | Amaranthus retroflexus (efficacy in %) (Amaranthus retroflexus [10]; application rate 20 g/ha): 100% | Amaranthus retroflexus (efficacy in %) (Amaranthus retroflexus [10]; application rate 80 g/ha): 100% | Polygonum convolvulus (efficacy in %) (Polygonum convolvulus [11]; application rate 20 g/ha): 100% | Polygonum convolvulus (efficacy in %) (Polygonum convolvulus [11]; application rate 80 g/ha): 100% | Abutilon theophrasti (efficacy in %) (Abutilon theophrasti [12]): 100% | Alopecurus myosuroides (efficacy in %) (Alopecurus myosuroides): 80% | Viola tricolor (efficacy in %) (Viola tricolor [13]; application rate 20 g/ha): 100% | Matricaria inodora (efficacy in %) (Matricaria inodora [14]; application rate 80 g/ha): 90% | Digitaria sanguinalis (efficacy in %) (Digitaria sanguinalis [15]; application rate 80 g/ha): 80% | Pharbitis purpurea (efficacy in %) (Pharbitis purpurea [16]): 100% | Glycine max (efficacy in %) (Glycine max [17]): 0% | Triticum aestivum (efficacy in %) (Triticum aestivum [18]): 20% | Brassica napus (efficacy in %) (Brassica napus [19]): 0% | Zea mays (efficacy in %) (Zea mays [20]; application rate 20 g/ha): 0% | Zea mays (efficacy in %) (Zea mays [20]; application rate 80 g/ha): 20% | Oryza sativa (efficacy in %) (Oryza sativa; application rate 5 g/ha): 20% | Triticum aestivum (efficacy in %) (Triticum aestivum [21]; application rate 1.25 g/ha): 10% | Triticum aestivum (efficacy in %) (Triticum aestivum [21]; application rate 5 g/ha): 20% | Brassica napus (efficacy in %) (Brassica napus [22]): 0% | Brassica napus (efficacy in %) (Brassica napus [22]; application rate 5 g/ha): 20%

CCOC(=O)COc1ncccc1Sc1cc(-n2c(=O)cc(C(F)(F)F)n(N)c2=O)c(F)cc1Cl [I.1-442, Ethyl {[3-({5-[3-amino-2,6-dioxo-4-(trifluoromethyl)-3,6-dihydropyrimidin-1(2H)-yl]-2-chloro-4-fluorophenyl}sulfanyl)pyridin-2-yl]oxy}acetate]
pest or weed control at 5 g/ha (Setaria viridis [1]): 100% | pest or weed control at 20 g/ha (Setaria viridis [1]; application rate 20 g/ha): 100% | pest or weed control at 5 g/ha (Veronica persica [2]): 100% | pest or weed control at 20 g/ha (Veronica persica [2]; application rate 20 g/ha): 100% | pest or weed control at 5 g/ha (Echinochloa crus-galli [23]; application rate 5 g/ha): 100% | pest or weed control at 20 g/ha (Echinochloa crus-galli [23]; application rate 20 g/ha): 100% | pest or weed control at 5 g/ha (Amaranthus retroflexus [24]; application rate 5 g/ha): 100% | pest or weed control at 20 g/ha (Amaranthus retroflexus [24]; application rate 20 g/ha): 100% | pest or weed control at 20 g/ha (Polygonum convolvulus [3]; application rate 20 g/ha): 100% | pest or weed control at 5 g/ha (Abutilon theophrasti [4]): 100% | pest or weed control at 20 g/ha (Abutilon theophrasti [4]; application rate 20 g/ha): 100% | pest or weed control at 5 g/ha (Viola tricolor [25]; application rate 5 g/ha): 100% | pest or weed control at 20 g/ha (Viola tricolor [25]; application rate 20 g/ha): 100% | pest or weed control at 5 g/ha (Matricaria inodora [5]): 90% | pest or weed control at 20 g/ha (Matricaria inodora [5]; application rate 20 g/ha): 100% | pest or weed control at 20 g/ha (Digitaria sanguinalis [26]): 100% | Stellaria media (efficacy in %) (Stellaria media): 100% | pest or weed control at 5 g/ha (Pharbitis purpurea [6]): 100% | Setaria viridis (efficacy in %) (Setaria viridis [7]; application rate 20 g/ha): 90% | Setaria viridis (efficacy in %) (Setaria viridis [7]; application rate 80 g/ha): 100% | Veronica persica (efficacy in %) (Veronica persica [8]; application rate 20 g/ha): 80% | Veronica persica (efficacy in %) (Veronica persica [8]; application rate 80 g/ha): 100% | Echinochloa crus-galli (efficacy in %) (Echinochloa crus-galli [9]): 100% | Amaranthus retroflexus (efficacy in %) (Amaranthus retroflexus [10]; application rate 20 g/ha): 100% | Amaranthus retroflexus (efficacy in %) (Amaranthus retroflexus [10]; application rate 80 g/ha): 100% | Polygonum convolvulus (efficacy in %) (Polygonum convolvulus [11]; application rate 20 g/ha): 90% | Polygonum convolvulus (efficacy in %) (Polygonum convolvulus [11]; application rate 80 g/ha): 100% | Abutilon theophrasti (efficacy in %) (Abutilon theophrasti [12]): 100% | Alopecurus myosuroides (efficacy in %) (Alopecurus myosuroides): 90% | Viola tricolor (efficacy in %) (Viola tricolor [13]; application rate 20 g/ha): 100% | Viola tricolor (efficacy in %) (Viola tricolor [13]; application rate 80 g/ha): 100% | Matricaria inodora (efficacy in %) (Matricaria inodora [14]; application rate 20 g/ha): 100% | Matricaria inodora (efficacy in %) (Matricaria inodora [14]; application rate 80 g/ha): 100% | Digitaria sanguinalis (efficacy in %) (Digitaria sanguinalis [15]; application rate 20 g/ha): 100% | Digitaria sanguinalis (efficacy in %) (Digitaria sanguinalis [15]; application rate 80 g/ha): 100% | Lolium rigidum (efficacy in %) (Lolium rigidum): 100% | Pharbitis purpurea (efficacy in %) (Pharbitis purpurea [16]): 100% | Triticum aestivum (efficacy in %) (Triticum aestivum [18]): 10% | Brassica napus (efficacy in %) (Brassica napus [19]): 0% | Zea mays (efficacy in %) (Zea mays [20]; application rate 20 g/ha): 0% | Glycine max (efficacy in %) (Glycine max [27]; application rate 1.25 g/ha): 10% | Glycine max (efficacy in %) (Glycine max [27]; application rate 5 g/ha): 20% | Oryza sativa (efficacy in %) (Oryza sativa; application rate 1.25 g/ha): 10% | Oryza sativa (efficacy in %) (Oryza sativa; application rate 5 g/ha): 20% | Brassica napus (efficacy in %) (Brassica napus [22]; application rate 1.25 g/ha): 10% | Zea mays (efficacy in %) (Zea mays [28]): 20%
